Reference: paper PMC9965125, “New NSAID Conjugates as Potent and Selective COX-2 Inhibitors: Synthesis, Molecular Modeling and Biological Investigation” (Molecules, 2023)

Assays:
[1] = system: acetic acid-induced abdominal writhing; assay: acetic acid-induced abdominal writhing assay (peripheral analgesic); format: in vivo, mice; conditions: for % Inhibition/Protection / Writing Reflex ± SE: 10 mg/kg indomethacin mol equivalent i.p.; for Potency: % inhibition/protection compared to indomethacin; for Writing Reflex ± SE: number of writhing counted for 30 min
Method: Peripheral analgesic testing
Peripheral analgesic activity was measured by the standard acetic acid-induced writhing […]
One hour after intraperitoneally (i,p.) administration of 10 mg kg−1 (mice body weight) […]
distilled/sterile water by the aid of two drops of Tween 80, each mouse was injected with 0.1 ml of 1% acetic acid solution i.p. The control group animals were given sterile/distilled water only with few drops of Tween 80. Starting 5 min after the acetic acid injection, the number of muscular contractions in each mouse was counted for 30 min. A significant reduction in the number of writhing by any test compound as compared to control animals was considered as a positive analgesic response. Percentage protection was calculated according to equ. (3), where n stands for the average number of writhing in the control group and n' is the average number of writhing in the treated group. The % potency was calculated by equ. (4) (Table 2).
% Inhibition/protection = n−n′ x100 … . (3)

[2] = system: hot plate latency; assay: hot plate assay (central analgesic); format: in vivo, mice; conditions: for % Protection / Latency Period ± SE: 10 mg/kg indomethacin mol equivalent i.p.; for Latency Period ± SE: cutoff 15 sec; for Potency: at 120 min compared to indomethacin
Method: The % potency was calculated by equ. (4) (Table 2). […]
% Potency = % protection of the tested compound x 100 ……. (4) […]
Central analgesic (hot plate) testing
The standard hot plate technique was undertaken by in vivo standard hot plate test [ 1,2]. […]
by placing them on a hot plate maintained at 55 ± 1 °C, 30 min. […]
suspended in sterile/distilled water by the ai d of two drops of Tween 80, and recording the reaction time in seconds for forepaw licking or jumping. The control group animals were given sterile/distilled water only with few drops of Tween 80. The maximum cutoff time was chosen as 15 sec. to prevent tissue damage. Response latencies were measured 30, 60, 90 and 120 min. after the application. The % protection was calculated by equ. ( 5) where, T1, T0 are the latency time mean of the tested compound and control group, respectively (Table 3).

[3] = system: carrageenan induced paw edema; assay: carrageenan-induced rat paw edema; format: in vivo; conditions: for % Inhibition of Edema ± Standard Error: 10 mg/kg indomethacin mol equivalent i.p.
Method: Anti-inflammatory activity screening
The anti-inflammatory activity of the tested compounds was determined in-vivo by the acute carrageenan induced paw edema standard method in rats. Adult Wister rats of either sex (pregnant female animals were excluded) weighing 120–150 g were divided into 19 groups of 6 animals each. The tested compounds dissolved in DMSO, at a dose of 10 mg kg-1 (rat body […]
inflammation. The control group was given DMSO only. Paw edema was induced by subcutaneous injection of freshly prepared 1% solution of carrageenan in saline (0.9%, 0.1 ml per rat) into subplantar tissue of the right hind paw of rats. The thickness of the paw was measured (in mm) after successive time intervals (1, 2, 3, 4 and 24 h) and compared with the initial hind paw thickness of each rat for determining the edema thickness. Data were collected, checked, revised and analyzed (SPSS 16). Quantitative variables from normal distribution were expressed as means ± SE “standard error”. The anti-inflammatory activity was expressed as percentage inhibition of edema thickness in treated animals in comparison with the control group according to eqn. (1) […]
% Inhibition of edema= Vc-Vt x 100 … .. (1)
Where, Vc and Vt are the means of edema paw thickness for the control and tested compound treated animal groups, respectively.
The potency of the tested compounds was expressed as % inhibition of edema thickness […]
% Potency = % inhibition of edema for the tested compound treated group x 100 … . (2)

Compound | % Inhibition/Protection [1] [%] | Potency [1] [%] | Writing Reflex ± SE [1] | % Protection ([2]; after 30 min) [%] | Latency Period ± SE ([2]; after 30 min) [s] | % Protection ([2]; after 60 min) [%] | Latency Period ± SE ([2]; after 60 min) [s] | % Protection ([2]; after 90 min) [%] | Latency Period ± SE ([2]; after 90 min) [s] | % Protection ([2]; after 120 min) [%] | Latency Period ± SE ([2]; after 120 min) [s] | Potency [2] | % Inhibition of Edema ± Standard Error ([3]; 1 h) [%] | % Inhibition of Edema ± Standard Error ([3]; 2 h) [%] | % Inhibition of Edema ± Standard Error ([3]; 4 h) [%] | % Inhibition of Edema ± Standard Error ([3]; 24 h) [%] | anti-inflammatory efficacy (in words) ([3]; carrageenan-induced rat paw edema)
COc1ccc2c(c1)c(CC(=O)OCc1cn(-c3ccccc3OC)nn1)c(C)n2C(=O)c1ccc(Cl)cc1 [Compound 8e, (1-(2-Methoxyphenyl)-1H-1,2,3-triazol-4-yl)methyl 2-(1-(4-chlorobenzoyl)-5-methoxy-2-methyl-1H-indol-3-yl)acetate] | 80.8 | 112.5 | 7.7 ± 1.3 | 69.2 | 11.30 ± 1.1 | 82.0 | 13.23 ± 1.6 | 27.5 | 11.36 ± 2.5 | 28.9 | 11.61 ± 2.2 | 51.2 | 0.00 ± 0.2 | 6.5 ± 1.0 | 4.2 ± 1.9 | 0.00 ± 0.3 | 
COc1ccc(-n2cc(COC(=O)Cc3c(C)n(C(=O)c4ccc(Cl)cc4)c4ccc(OC)cc34)nn2)cc1 [Compound 8f, (1-(4-Methoxyphenyl)-1H-1,2,3-triazol-4-yl)methyl 2-(1-(4-chlorobenzoyl)-5-methoxy-2-methyl-1H-indol-3-yl)acetate] | 66.8 | 93.0 | 13.3 ± 1.9 | 66.3 | 11.11 ± 1.6 | 92.4 | 13.99 ± 1.9 | 68.4 | 15.00 ± 2.5 | 66.5 | 15.00 ± 2.6 | 117.7 |  |  |  |  | no anti-inflammatory efficacy
COc1ccc2c(c1)c(CC(=O)OCc1cn(-c3ccc([N+](=O)[O-])cc3)nn1)c(C)n2C(=O)c1ccc(Cl)cc1 [Compound 8g, (1-(4-Nitrophenyl)-1H-1,2,3-triazol-4-yl)methyl 2-(1-(4-chlorobenzoyl)-5-methoxy-2-methyl-1H-indol-3-yl)acetate] | 96.3 | 134.1 | 1.5 ± 0.4 | 56.6 | 10.46 ± 2.4 | 45.4 | 10.57 ± 2.7 | 41.2 | 12.58 ± 2.0 | 2.7 | 9.25 ± 2.3 | 4.8 | 20.0 ± 0.7 |  |  | 0.00 ± 1.2 | 
